# Test results published in paper PMC8449129, “Single tracer-based protocol for broad-spectrum kinase profiling in live cells with NanoBRET” (STAR Protocols, 2021).
# Assays:
# Assay in all cases: cell-based
# Set-up in all cases: NanoBRET live-cell target engagement; % occupancy from displacement of tracer K10 on NanoLuc-kinase fusions, mean n=3
# Conditions in all cases: HEK293, read-out: % inhibition
# [1] = molecular target: NEK11 (Homo sapiens, UniProt Q8NG66)
# How it was run: (§1)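 Live-cell NanoBRET target engagement: cells expressing kinase–NanoLuc fusion with tracer treated with compound 2 h at 37 °C, 5% CO2. BRET read from donor (450 nm) and acceptor (610/630 nm) emission with 20 μM extracellular NanoLuc inhibitor; % occupancy calculated relative to tracer+DMSO and zero-BRET controls.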
# [2] = molecular target: MYLK4 (Homo sapiens, UniProt Q86YV6)
# Chain of MYLK4 (Q86YV6 whole entry): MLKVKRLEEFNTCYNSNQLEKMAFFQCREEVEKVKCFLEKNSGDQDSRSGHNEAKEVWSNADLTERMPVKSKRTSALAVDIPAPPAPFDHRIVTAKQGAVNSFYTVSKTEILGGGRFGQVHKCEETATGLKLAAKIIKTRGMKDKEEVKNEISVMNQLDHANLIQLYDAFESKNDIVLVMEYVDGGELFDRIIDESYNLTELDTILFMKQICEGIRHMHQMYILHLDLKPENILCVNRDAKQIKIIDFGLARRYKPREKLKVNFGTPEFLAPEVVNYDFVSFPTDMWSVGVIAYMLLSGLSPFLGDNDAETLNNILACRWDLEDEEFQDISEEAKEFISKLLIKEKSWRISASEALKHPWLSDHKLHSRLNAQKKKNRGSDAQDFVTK
# How it was run: as §1
# [3] = molecular target: LIMK1 (Homo sapiens, UniProt P53667)
# How it was run: as §1
# [4] = molecular target: MAP3K11 (Homo sapiens, UniProt Q16584)
# Chain of MAP3K11 (Q16584 whole entry): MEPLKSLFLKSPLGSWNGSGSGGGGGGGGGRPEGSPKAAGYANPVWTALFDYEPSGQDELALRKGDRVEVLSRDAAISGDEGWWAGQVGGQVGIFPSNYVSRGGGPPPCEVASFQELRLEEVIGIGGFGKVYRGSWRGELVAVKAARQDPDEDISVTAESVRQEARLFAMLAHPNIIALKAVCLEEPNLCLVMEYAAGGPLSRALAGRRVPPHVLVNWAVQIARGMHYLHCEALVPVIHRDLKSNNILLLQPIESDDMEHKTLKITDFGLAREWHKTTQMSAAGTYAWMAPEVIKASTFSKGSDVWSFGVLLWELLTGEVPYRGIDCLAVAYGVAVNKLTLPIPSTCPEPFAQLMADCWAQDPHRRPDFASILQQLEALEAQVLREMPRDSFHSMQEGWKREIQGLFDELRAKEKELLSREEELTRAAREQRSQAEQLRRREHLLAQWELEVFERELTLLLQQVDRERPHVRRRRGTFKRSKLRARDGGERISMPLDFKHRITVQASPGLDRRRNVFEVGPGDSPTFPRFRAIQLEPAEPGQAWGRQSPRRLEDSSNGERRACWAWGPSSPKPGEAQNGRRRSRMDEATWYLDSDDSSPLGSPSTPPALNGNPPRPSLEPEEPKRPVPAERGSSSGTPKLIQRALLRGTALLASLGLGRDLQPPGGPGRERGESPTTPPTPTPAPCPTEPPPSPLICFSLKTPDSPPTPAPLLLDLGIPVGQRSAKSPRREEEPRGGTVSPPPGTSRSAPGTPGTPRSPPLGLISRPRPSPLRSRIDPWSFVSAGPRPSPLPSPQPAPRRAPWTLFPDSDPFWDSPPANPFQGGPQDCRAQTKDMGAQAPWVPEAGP
# How it was run: as §1
# [5] = molecular target: CDKL2 (Homo sapiens, UniProt Q92772)
# How it was run: as §1
# [6] = molecular target: CAMK2D (Homo sapiens, UniProt Q13557)
# How it was run: as §1
# [7] = molecular target: MARK2 (Homo sapiens, UniProt Q7KZI7)
# How it was run: as §1
# [8] = molecular target: PRKX (Homo sapiens, UniProt P51817)
# Chain of PRKX (P51817 whole entry): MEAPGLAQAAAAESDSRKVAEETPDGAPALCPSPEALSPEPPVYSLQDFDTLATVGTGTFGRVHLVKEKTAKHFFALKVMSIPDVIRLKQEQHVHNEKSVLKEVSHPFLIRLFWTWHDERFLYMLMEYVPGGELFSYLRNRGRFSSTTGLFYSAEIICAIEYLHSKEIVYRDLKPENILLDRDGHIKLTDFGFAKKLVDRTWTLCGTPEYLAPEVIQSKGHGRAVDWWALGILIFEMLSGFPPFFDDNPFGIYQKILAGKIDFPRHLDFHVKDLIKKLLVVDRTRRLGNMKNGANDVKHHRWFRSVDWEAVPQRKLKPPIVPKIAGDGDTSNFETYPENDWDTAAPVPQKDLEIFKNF
# How it was run: as §1
# [9] = molecular target: TNK2 (Homo sapiens, UniProt Q07912)
# How it was run: as §1
# [10] = molecular target: DCLK3 (Homo sapiens, UniProt Q9C098)
# Chain of DCLK3 (Q9C098 whole entry): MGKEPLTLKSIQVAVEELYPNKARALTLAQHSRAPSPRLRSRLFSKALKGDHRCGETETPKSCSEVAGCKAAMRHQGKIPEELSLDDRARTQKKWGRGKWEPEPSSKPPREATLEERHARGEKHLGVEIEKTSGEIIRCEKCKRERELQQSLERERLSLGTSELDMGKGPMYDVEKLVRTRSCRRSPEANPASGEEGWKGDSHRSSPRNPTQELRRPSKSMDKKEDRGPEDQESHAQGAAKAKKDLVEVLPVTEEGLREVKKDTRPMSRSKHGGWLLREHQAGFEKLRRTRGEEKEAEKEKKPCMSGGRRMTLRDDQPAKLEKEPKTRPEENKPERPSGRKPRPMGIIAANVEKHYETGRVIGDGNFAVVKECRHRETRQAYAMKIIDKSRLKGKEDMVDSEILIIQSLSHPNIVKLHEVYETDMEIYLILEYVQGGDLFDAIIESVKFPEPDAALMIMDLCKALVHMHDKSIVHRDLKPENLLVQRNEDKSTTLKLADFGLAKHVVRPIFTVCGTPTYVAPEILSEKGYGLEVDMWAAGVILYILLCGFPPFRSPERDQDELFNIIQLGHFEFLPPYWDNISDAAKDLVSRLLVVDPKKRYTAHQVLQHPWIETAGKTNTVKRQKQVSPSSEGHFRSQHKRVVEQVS
# How it was run: as §1
# [11] = molecular target: ULK3 (Homo sapiens, UniProt Q6PHR2)
# How it was run: as §1
# [12] = molecular target: ABL2 (Homo sapiens, UniProt P42684)
# Chain of ABL2 (P42684 whole entry): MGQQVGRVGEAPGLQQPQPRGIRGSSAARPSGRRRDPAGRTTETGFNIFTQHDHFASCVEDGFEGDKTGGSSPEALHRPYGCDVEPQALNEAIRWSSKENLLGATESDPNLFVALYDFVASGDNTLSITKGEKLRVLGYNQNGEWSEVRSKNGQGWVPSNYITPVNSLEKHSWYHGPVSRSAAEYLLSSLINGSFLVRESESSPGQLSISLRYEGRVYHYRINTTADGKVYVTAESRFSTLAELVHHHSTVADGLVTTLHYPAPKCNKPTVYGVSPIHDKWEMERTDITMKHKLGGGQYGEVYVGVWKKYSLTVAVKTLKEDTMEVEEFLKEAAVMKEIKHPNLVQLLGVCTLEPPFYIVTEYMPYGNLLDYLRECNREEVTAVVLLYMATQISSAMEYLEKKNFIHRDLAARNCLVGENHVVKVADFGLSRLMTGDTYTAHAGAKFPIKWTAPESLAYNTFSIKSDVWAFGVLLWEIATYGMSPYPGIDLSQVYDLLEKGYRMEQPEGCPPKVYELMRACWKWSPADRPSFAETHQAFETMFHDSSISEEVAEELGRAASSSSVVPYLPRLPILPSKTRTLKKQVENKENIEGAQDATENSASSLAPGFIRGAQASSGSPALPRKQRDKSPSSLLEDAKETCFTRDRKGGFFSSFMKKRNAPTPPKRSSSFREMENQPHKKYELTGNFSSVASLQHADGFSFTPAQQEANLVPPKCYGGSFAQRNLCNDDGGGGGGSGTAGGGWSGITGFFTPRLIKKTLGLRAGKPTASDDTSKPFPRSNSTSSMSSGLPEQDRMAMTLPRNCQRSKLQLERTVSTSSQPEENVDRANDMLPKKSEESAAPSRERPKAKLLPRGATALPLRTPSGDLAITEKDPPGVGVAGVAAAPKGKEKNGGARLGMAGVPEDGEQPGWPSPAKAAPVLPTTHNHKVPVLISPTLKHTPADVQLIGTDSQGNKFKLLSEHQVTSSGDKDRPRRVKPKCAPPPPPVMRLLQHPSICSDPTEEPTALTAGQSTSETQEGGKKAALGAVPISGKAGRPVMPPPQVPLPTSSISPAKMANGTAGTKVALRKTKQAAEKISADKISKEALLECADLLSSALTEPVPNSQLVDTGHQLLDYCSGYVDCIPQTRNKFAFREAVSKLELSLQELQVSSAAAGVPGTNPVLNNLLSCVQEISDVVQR
# How it was run: as §1
# [13] = molecular target: NEK9 (Homo sapiens, UniProt Q8TD19)
# How it was run: as §1
# [14] = molecular target: MAPK4 (Homo sapiens, UniProt P31152)
# How it was run: as §1
# [15] = molecular target: NEK3 (Homo sapiens, UniProt P51956)
# How it was run: as §1
# [16] = molecular target: BRSK2 (Homo sapiens, UniProt Q8IWQ3)
# Chain of BRSK2 (Q8IWQ3 whole entry): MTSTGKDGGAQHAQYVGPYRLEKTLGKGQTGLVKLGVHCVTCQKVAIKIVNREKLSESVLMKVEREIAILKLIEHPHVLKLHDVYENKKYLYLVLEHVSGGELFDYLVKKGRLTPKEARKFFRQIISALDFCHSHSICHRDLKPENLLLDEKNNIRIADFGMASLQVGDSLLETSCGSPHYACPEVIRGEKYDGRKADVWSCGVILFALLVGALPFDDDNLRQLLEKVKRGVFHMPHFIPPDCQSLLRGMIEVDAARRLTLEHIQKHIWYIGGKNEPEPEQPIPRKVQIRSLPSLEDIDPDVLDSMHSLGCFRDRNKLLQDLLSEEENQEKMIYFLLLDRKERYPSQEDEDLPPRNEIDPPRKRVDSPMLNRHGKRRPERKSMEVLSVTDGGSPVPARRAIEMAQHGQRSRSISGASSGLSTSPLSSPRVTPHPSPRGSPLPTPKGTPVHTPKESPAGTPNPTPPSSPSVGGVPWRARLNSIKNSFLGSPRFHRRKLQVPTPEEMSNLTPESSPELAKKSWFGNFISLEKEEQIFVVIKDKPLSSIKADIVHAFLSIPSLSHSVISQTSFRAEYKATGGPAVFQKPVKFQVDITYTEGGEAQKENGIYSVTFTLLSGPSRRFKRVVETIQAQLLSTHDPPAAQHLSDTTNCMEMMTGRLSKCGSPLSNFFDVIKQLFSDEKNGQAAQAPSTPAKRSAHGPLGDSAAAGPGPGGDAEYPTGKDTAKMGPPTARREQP
# How it was run: as §1
# [17] = molecular target: MAST4 (Homo sapiens, UniProt O15021)
# How it was run: as §1
# [18] = molecular target: CHEK2 (Homo sapiens, UniProt O96017)
# Chain of CHEK2 (O96017 whole entry): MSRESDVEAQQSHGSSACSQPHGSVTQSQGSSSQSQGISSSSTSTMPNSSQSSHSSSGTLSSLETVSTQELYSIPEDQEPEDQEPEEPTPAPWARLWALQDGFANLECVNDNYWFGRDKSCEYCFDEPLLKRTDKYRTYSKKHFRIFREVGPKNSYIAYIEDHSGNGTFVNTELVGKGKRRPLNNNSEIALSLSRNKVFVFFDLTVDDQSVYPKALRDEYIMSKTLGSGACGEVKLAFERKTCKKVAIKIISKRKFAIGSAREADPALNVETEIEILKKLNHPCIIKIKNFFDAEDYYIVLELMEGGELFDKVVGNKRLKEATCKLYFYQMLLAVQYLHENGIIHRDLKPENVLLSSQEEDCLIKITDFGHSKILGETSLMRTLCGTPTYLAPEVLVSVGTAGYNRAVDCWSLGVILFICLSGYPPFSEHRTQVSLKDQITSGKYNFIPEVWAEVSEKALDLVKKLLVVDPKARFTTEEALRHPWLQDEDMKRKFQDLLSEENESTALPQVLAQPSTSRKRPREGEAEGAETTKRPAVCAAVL
# How it was run: as §1
smiles,measurement,setting,value
C[C@@H](Oc1cc(-c2cnn(C3CCNCC3)c2)cnc1N)c1c(Cl)ccc(F)c1Cl [crizotinib],inhibition at 1 µM,[1],7%
same,inhibition at 1 µM,[2],-8%
same,inhibition at 1 µM,[3],29%
same,inhibition at 1 µM,[4],0%
same,inhibition at 1 µM,[5],21%
same,inhibition at 1 µM,[6],3%
same,inhibition at 1 µM,[7],4%
same,inhibition at 1 µM,[8],-14%
same,inhibition at 1 µM,[9],13%
same,inhibition at 1 µM,[10],0%
same,inhibition at 1 µM,[11],2%
same,inhibition at 1 µM,[12],43%
same,inhibition at 1 µM,[13],1%
same,inhibition at 1 µM,[14],-12%
same,inhibition at 1 µM,[15],-2%
same,inhibition at 1 µM,[16],3%
same,inhibition at 1 µM,[17],6%
same,inhibition at 1 µM,[18],0%
